# US20260273074A1, “FERRITIN-TARGETING PROTACS AND METHODS OF INDUCING PYROPTOSIS” (Wisconsin Alumni Research Foundation, priority 2023, published 2026)
# Test system: B16F10 cells
# Assay: Determination of intracellular free iron content
# Format: cell-based, murine
# Details: 5 μM, 8 h
# Procedure: Determination of free iron content: Here, the focus was on detecting the intracellular free iron ions rather than protein-bound iron contents. The procedures for sample preparation were based on a previously reported method. B16F10 cells were seeded in T75 cell culture flasks (2×10^6 cells per well) and cultured for 24 h. […] After incubation for 8 h, cells were harvested and resuspended in 1 mL PBS. Besides, 800 μL of PBS cell suspension was subjected to centrifugation, and 780 μL of the supernatant was carefully removed. Afterward, 280 μL of ultrapure water was added to the cell precipitate. Following shaking at horizontal rotators for 12 h, the supernatant was transferred into 30 KDa ultrafiltration centrifuge tube after twice centrifugation at 2,000 g for 20 min. […] The lysates were centrifuged at 12,000 rpm for 10 min at 4° C., followed by quantification of the total proteins in the supernatant through the BCA assay.
# As for iron content determination, 200 μL of the abovementioned filtrates were collected and treated with 10 μL of hydrochloric acid solution (6 mol/L), 100 μL of acetic acid-sodium acetate buffer (pH=4.5), 10 μL of 10% aqueous hydroxylamine hydrochloride, and 100 μL of o-phenanthroline (1 mg/mL). […] The iron ion content could be calculated according to the standard curve. […]
smiles,measurement,value
CCCCCCCCC=CCCCCCCCC(=O)NCCCC(=O)NC(C(=O)N1CC(O)CC1C(=O)NCc1ccc(-c2scnc2C)cc1)C(C)(C)C (stereo not shown) [DeFer-2],intracellular free iron content,significant elevation
